Legend:
Type in all cases: in vivo
rats mâles = test: Diuretic action with water overload in the rat (modified Lipschitz technique, oral); conditions: for K = nbre de meq/L pour 100 g d'animal / Na = nbre de meq/L pour 100 g d'animal / dV = pourcentage du volume d'urine émise par rapport au lot témoin et ramené à 100 g de poids corporel: rat, oral, surcharge hydrique; for K = nbre de meq/L pour 100 g d'animal / Na = nbre de meq/L pour 100 g d'animal: 6 h urine; for dV = pourcentage du volume d'urine émise par rapport au lot témoin et ramené à 100 g de poids corporel: 6 h; for diurèse: summary in words of tableaux I à III
Source text: (§1) L'étude de l'activité diurétique a été effectuée comme suit : • l'expérience a été réalisée en utilisant la technique de LIPSCHITZ & Coll. (J. Pharm. Exp. Ther. 1943, 79, p. 97) modifiée pour la circonstance.
(§2) Des lots de 6 rats mâles, pesant environ 150 g, mis à jeun et privés de boisson la veille de l'essai, ont été placés par deux dans des cages à métabolisme pour une durée de 6 heures.
Les produits à essayer ont été administrés par voie orale, à la sonde, en même temps qu'une surcharge hydrique (eau du robinet à 37 °C), à raison de 5 ml pour 100 g de poids corporel.
(§3) Les volumes urinaires ont été recueillis et mesurés toutes les heures, et la quantité d'urine excrétée est donnée en ml par heure et par rat.
(§4) Les dosages du chlore, du sodium et du potassium sont effectués sur les prélèvements de 6 heures et sont exprimés en Meq par litre d'urine et par 100 g de rat.
(§5) A partir de ces chiffres et par rapport aux témoins, des pourcentages d'augmentation ou de diminution de la diurèse ont pu être calculés.
L'excrétion urinaire est donnée par le rapport : [formula]
L'activité diurétique est obtenue en faisant le rapport : • E.U. traités • E.U. témoins
Dans le tableau I figure l'action diurétique avec surcharge hydrique pour les composés A, B et C, et pour le furosémide et l'hydrochlorothiazide.

RAT = test: Diuretic action with water-and-sodium overload in the rat; conditions: for fuite de potassium: rat
Source text: as §1, §2, §3, §4, §5
Dans le tableau II figure l'action diurétique avec surcharge hydrosodée pour le composé A et le furosémide.

chien Beagle = test: Diuresis in the Beagle dog after injection, urine output over one hour; conditions: for Emission d'urine en ml TOTAL: TOTAL (60 mn)
[1] = 2 mg/kg, une heure, versus témoin

CN(C)n1c(=O)[nH]c2cc(Cl)c(S(N)(=O)=O)cc2c1=O [Composé A, Chloro-7 diméthylamino-3 dioxo-2,4 (1H,3H) sulfonamido-6 quinazoline]
K = nbre de meq/L pour 100 g d'animal (rats mâles; dose 0,1 mg/kg): +19 meq/L pour 100 g d'animal | K = nbre de meq/L pour 100 g d'animal (rats mâles; dose 1 mg/kg): +18 meq/L pour 100 g d'animal | Na = nbre de meq/L pour 100 g d'animal (rats mâles; dose 1 mg/kg): +139,4 meq/L pour 100 g d'animal | dV = pourcentage du volume d'urine émise par rapport au lot témoin et ramené à 100 g de poids corporel (rats mâles; dose 10 mg/kg): +38,3% | K = nbre de meq/L pour 100 g d'animal (rats mâles; dose 10 mg/kg): +71 meq/L pour 100 g d'animal | Na = nbre de meq/L pour 100 g d'animal (rats mâles; dose 10 mg/kg): +551 meq/L pour 100 g d'animal | dV = pourcentage du volume d'urine émise par rapport au lot témoin et ramené à 100 g de poids corporel (rats mâles; dose 25 mg/kg): +39,7% | K = nbre de meq/L pour 100 g d'animal (rats mâles; dose 25 mg/kg): +67 meq/L pour 100 g d'animal | Na = nbre de meq/L pour 100 g d'animal (rats mâles; dose 25 mg/kg): +672 meq/L pour 100 g d'animal | dV = pourcentage du volume d'urine émise par rapport au lot témoin et ramené à 100 g de poids corporel (rats mâles; dose 50 mg/kg): +23,6% | K = nbre de meq/L pour 100 g d'animal (rats mâles; dose 50 mg/kg): +90 meq/L pour 100 g d'animal | Na = nbre de meq/L pour 100 g d'animal (rats mâles; dose 50 mg/kg): +606 meq/L pour 100 g d'animal | diurèse (rats mâles): augmentent la diurèse | action diurétique par rapport au furosémide (RAT; 10 mg/kg composé A sensiblement égale à 25 mg/kg de furosémide): sensiblement double | fuite de potassium (RAT; dose 10 mg/kg (doses équivalentes)): 19% | sodium éliminé dans le volume d'urine émis (chien Beagle; 2 mg/kg, une heure): ~10 fois celui du témoin | la diurèse est multipliée par (chien Beagle; [1]): 600/100 | taux de potassium multiplié par (chien Beagle; [1]): 1,2 | Emission d'urine en ml 0,5 mn (chien Beagle; Dose I.V. 1 mg/kg, 0,5 mn): 3,5 ml | Emission d'urine en ml 5-10 mn (chien Beagle; Dose I.V. 1 mg/kg): 5,0 ml | Emission d'urine en ml - 20 mn (chien Beagle; Dose I.V. 1 mg/kg): 8,5 ml | Emission d'urine en ml - 30 mn (chien Beagle; Dose I.V. 1 mg/kg): 7,0 ml | Emission d'urine en ml - 40 mn (chien Beagle; Dose I.V. 1 mg/kg): 9,0 ml | Emission d'urine en ml - 50 mn (chien Beagle; Dose I.V. 1 mg/kg): 8,0 ml | Emission d'urine en ml - 60mn (chien Beagle; Dose I.V. 1 mg/kg): 9,0 ml | Emission d'urine en ml TOTAL (chien Beagle; Dose I.V. 1 mg/kg): 50,0 ml | Emission d'urine en ml 0,5 mn (chien Beagle; Dose I.V. 2 mg/kg, 0,5 mn): 8,0 ml | Emission d'urine en ml 5-10 mn (chien Beagle; Dose I.V. 2 mg/kg): 14,5 ml | Emission d'urine en ml - 20 mn (chien Beagle; Dose I.V. 2 mg/kg): 20,5 ml | Emission d'urine en ml - 30 mn (chien Beagle; Dose I.V. 2 mg/kg): 18,5 ml | Emission d'urine en ml - 40 mn (chien Beagle; Dose I.V. 2 mg/kg): 15,5 ml | Emission d'urine en ml - 50 mn (chien Beagle; Dose I.V. 2 mg/kg): 11,5 ml | Emission d'urine en ml - 60mn (chien Beagle; Dose I.V. 2 mg/kg): 8,5 ml | Emission d'urine en ml TOTAL (chien Beagle; Dose I.V. 2 mg/kg): 97,0 ml | Emission d'urine en ml 0,5 mn (chien Beagle; Dose I.V. 5 mg/kg, 0,5 mn): 9,5 ml | Emission d'urine en ml 5-10 mn (chien Beagle; Dose I.V. 5 mg/kg): 10,5 ml | Emission d'urine en ml - 20 mn (chien Beagle; Dose I.V. 5 mg/kg): 10,0 ml | Emission d'urine en ml - 30 mn (chien Beagle; Dose I.V. 5 mg/kg): 8,0 ml | Emission d'urine en ml - 40 mn (chien Beagle; Dose I.V. 5 mg/kg): 9,0 ml | Emission d'urine en ml - 50 mn (chien Beagle; Dose I.V. 5 mg/kg): 5,5 ml | Emission d'urine en ml - 60mn (chien Beagle; Dose I.V. 5 mg/kg): 7,0 ml | Emission d'urine en ml TOTAL (chien Beagle; Dose I.V. 5 mg/kg): 59,5 ml | Emission d'urine en ml 0,5 mn (chien Beagle; Dose I.V. 10 mg/kg, 0,5 mn): 4,0 ml | Emission d'urine en ml 5-10 mn (chien Beagle; Dose I.V. 10 mg/kg): 8,0 ml | Emission d'urine en ml - 20 mn (chien Beagle; Dose I.V. 10 mg/kg): 9,0 ml | Emission d'urine en ml - 30 mn (chien Beagle; Dose I.V. 10 mg/kg): 10,0 ml | Emission d'urine en ml - 40 mn (chien Beagle; Dose I.V. 10 mg/kg): 4,0 ml | Emission d'urine en ml - 50 mn (chien Beagle; Dose I.V. 10 mg/kg): 8,0 ml | Emission d'urine en ml - 60mn (chien Beagle; Dose I.V. 10 mg/kg): 7,5 ml | Emission d'urine en ml TOTAL (chien Beagle; Dose I.V. 10 mg/kg): 50,5 ml | dose avec laquelle la diurèse maximale au bout d'une heure est atteinte (chien Beagle; voie I.P., une heure): 2 mg/kg

CCN(CC)n1c(=O)[nH]c2cc(Cl)c(S(N)(=O)=O)cc2c1=O [Composé B, Chloro-7 diéthylamino-3 dioxo-2,4 (1H,3H) sulfonamido-6 quinazoline]
K = nbre de meq/L pour 100 g d'animal (rats mâles; dose 1 mg/kg): +15 meq/L pour 100 g d'animal | Na = nbre de meq/L pour 100 g d'animal (rats mâles; dose 1 mg/kg): +160 meq/L pour 100 g d'animal | dV = pourcentage du volume d'urine émise par rapport au lot témoin et ramené à 100 g de poids corporel (rats mâles; dose 10 mg/kg): +30% | K = nbre de meq/L pour 100 g d'animal (rats mâles; dose 10 mg/kg): +35 meq/L pour 100 g d'animal | Na = nbre de meq/L pour 100 g d'animal (rats mâles; dose 10 mg/kg): +582 meq/L pour 100 g d'animal | dV = pourcentage du volume d'urine émise par rapport au lot témoin et ramené à 100 g de poids corporel (rats mâles; dose 25 mg/kg): +35% | K = nbre de meq/L pour 100 g d'animal (rats mâles; dose 25 mg/kg): +33 meq/L pour 100 g d'animal | Na = nbre de meq/L pour 100 g d'animal (rats mâles; dose 25 mg/kg): +671 meq/L pour 100 g d'animal | dV = pourcentage du volume d'urine émise par rapport au lot témoin et ramené à 100 g de poids corporel (rats mâles; dose 50 mg/kg): +31% | K = nbre de meq/L pour 100 g d'animal (rats mâles; dose 50 mg/kg): +21 meq/L pour 100 g d'animal | Na = nbre de meq/L pour 100 g d'animal (rats mâles; dose 50 mg/kg): +550 meq/L pour 100 g d'animal | diurèse (rats mâles): augmentent la diurèse

NS(=O)(=O)c1cc2c(=O)n(N3CCCCC3)c(=O)[nH]c2cc1Cl [Composé C, Chloro-7 pipéridino-3 dioxo-2,4 (1H,3H) sulfonamido-6 quinazoline]
K = nbre de meq/L pour 100 g d'animal (rats mâles; dose 0,1 mg/kg): +15 meq/L pour 100 g d'animal | dV = pourcentage du volume d'urine émise par rapport au lot témoin et ramené à 100 g de poids corporel (rats mâles; dose 1 mg/kg): +15% | K = nbre de meq/L pour 100 g d'animal (rats mâles; dose 1 mg/kg): +17 meq/L pour 100 g d'animal | Na = nbre de meq/L pour 100 g d'animal (rats mâles; dose 1 mg/kg): +141 meq/L pour 100 g d'animal | dV = pourcentage du volume d'urine émise par rapport au lot témoin et ramené à 100 g de poids corporel (rats mâles; dose 10 mg/kg): +35% | K = nbre de meq/L pour 100 g d'animal (rats mâles; dose 10 mg/kg): +47 meq/L pour 100 g d'animal | Na = nbre de meq/L pour 100 g d'animal (rats mâles; dose 10 mg/kg): +513 meq/L pour 100 g d'animal | dV = pourcentage du volume d'urine émise par rapport au lot témoin et ramené à 100 g de poids corporel (rats mâles; dose 25 mg/kg): +31% | K = nbre de meq/L pour 100 g d'animal (rats mâles; dose 25 mg/kg): +42 meq/L pour 100 g d'animal | Na = nbre de meq/L pour 100 g d'animal (rats mâles; dose 25 mg/kg): +583 meq/L pour 100 g d'animal | dV = pourcentage du volume d'urine émise par rapport au lot témoin et ramené à 100 g de poids corporel (rats mâles; dose 50 mg/kg): +18% | K = nbre de meq/L pour 100 g d'animal (rats mâles; dose 50 mg/kg): +57 meq/L pour 100 g d'animal | Na = nbre de meq/L pour 100 g d'animal (rats mâles; dose 50 mg/kg): +531 meq/L pour 100 g d'animal | diurèse (rats mâles): augmentent la diurèse

NS(=O)(=O)c1cc(C(=O)O)c(NCc2ccco2)cc1Cl [Furosémide, acide chloro-4 furfurylamino-2 sulfamoyl-5 benzoïque, reference compound]
K = nbre de meq/L pour 100 g d'animal (rats mâles; dose 10 mg/kg): -19 meq/L pour 100 g d'animal | dV = pourcentage du volume d'urine émise par rapport au lot témoin et ramené à 100 g de poids corporel (rats mâles; dose 25 mg/kg): +18% | dV = pourcentage du volume d'urine émise par rapport au lot témoin et ramené à 100 g de poids corporel (rats mâles; dose 50 mg/kg): +76% | K = nbre de meq/L pour 100 g d'animal (rats mâles; dose 50 mg/kg): +84 meq/L pour 100 g d'animal | Na = nbre de meq/L pour 100 g d'animal (rats mâles; dose 50 mg/kg): +639 meq/L pour 100 g d'animal | diurèse (rats mâles): augmentent la diurèse | fuite de potassium (RAT; dose 25 mg/kg (doses équivalentes)): 30,3%

NS(=O)(=O)c1cc2c(cc1Cl)NCNS2(=O)=O [Hydrochloro-thiazide, dioxo-1,1 chloro-6 dihydro-3,4 sulfamoyl-7 (1,2,4)H benzothiadiazine, reference compound]
Na = nbre de meq/L pour 100 g d'animal (rats mâles; dose 0,1 mg/kg): +6,9 meq/L pour 100 g d'animal | dV = pourcentage du volume d'urine émise par rapport au lot témoin et ramené à 100 g de poids corporel (rats mâles; dose 1 mg/kg): +38% | K = nbre de meq/L pour 100 g d'animal (rats mâles; dose 1 mg/kg): +29 meq/L pour 100 g d'animal | Na = nbre de meq/L pour 100 g d'animal (rats mâles; dose 1 mg/kg): +374 meq/L pour 100 g d'animal | dV = pourcentage du volume d'urine émise par rapport au lot témoin et ramené à 100 g de poids corporel (rats mâles; dose 10 mg/kg): +40% | K = nbre de meq/L pour 100 g d'animal (rats mâles; dose 10 mg/kg): +22 meq/L pour 100 g d'animal | Na = nbre de meq/L pour 100 g d'animal (rats mâles; dose 10 mg/kg): +430 meq/L pour 100 g d'animal | dV = pourcentage du volume d'urine émise par rapport au lot témoin et ramené à 100 g de poids corporel (rats mâles; dose 25 mg/kg): +48% | K = nbre de meq/L pour 100 g d'animal (rats mâles; dose 25 mg/kg): +44 meq/L pour 100 g d'animal | Na = nbre de meq/L pour 100 g d'animal (rats mâles; dose 25 mg/kg): +504 meq/L pour 100 g d'animal | diurèse (rats mâles): augmentent la diurèse

Reference: patent publication EP0012051A1, “3-Amino-2,4-dioxo-(1H,3H)-quinazolines, process for their preparation and therapeutic composition containing them” (Société dite: BERRI-BALZAC, priority 1978, dated 1980)
